From paper PMC8877905, “Novel Cocrystals of Vonoprazan: Machine Learning-Assisted Discovery” (Pharmaceutics, 2022)
Where two headings read alike, the source gives them in different places.

What was measured:
[1] = pKa calculation with ChemAxon calculator and ΔpKa rule; settings: pKa (base) − pKa (acid); VPZ pKa = 9.4 versus calculated coformer pKa
Description: The combination with a value 0 ≤ ΔpKa ≤ 3 is much less predictable and falls within a “salt-cocrystal continuum” [38]. We applied this approach to the coformers selected based on virtual cocrystal screening to assess whether the combination would form a cocrystal or salt (Table 1).

[2] = set-up: method as in PMID 28578848; settings: cited from earlier work
[3] = Accelerated stability testing in the solid state; format: physicochemical
[4] = Intrinsic dissolution rate (IDR) in phosphate buffer pH 6.8; format: physicochemical; settings: for IDR in pH 6.8: phosphate buffer pH 6.8, 37 °C, 50 rpm, 13 mm pellet
Experimental: IDR was investigated using a Distek […] dissolution tester (Distek, North Brunswick, NJ, USA). […] Aliquots of 1.5 mL of the dissolution samples were collected at predetermined time intervals, filtered through 0.45 μm syringe filters, and analyzed for their VPZ concentration by HPLC. The VPZ concentration was measured using an HPLC system (UFLC; Shimadzu) with a diode array detector and Shim-pack GIS-ODS C18 column (4.6 × 250 mm, 5 μm). […] The volume of the injected samples was 10 μL and the VPZ content was assayed spectrophotometrically at a wavelength of 245 nm.

[5] = Stability in aqueous solution: PXRD of solids remaining after 24 h slurry; format: physicochemical; settings: pH 6.8 solution, slurry for 24 h
Experimental: The solubility and dissolution behavior of drugs in aqueous solvent are important physicochemical properties for good oral bioavailability. VPZ has pH-dependent solubility, which increases with decreasing pH. […] The aqueous solubility for cocrystals and salts of VPZ was measured in pH 1.2 and 6.8 buffer solutions at 37 °C. VPZ concentrations were determined in aliquots retrieved from the suspensions after 24 h by HPLC. One of the major challenges in investigations of solubility in multicomponent solid forms is the change in the solution composition due to precipitation of the components dissociated over the test period. In this study, the stability of the cocrystals in aqueous solution was checked by PXRD analysis of the solids remaining after solubility experiments. At pH 1.2, however, the amount recovered from the suspensions was too low to confirm their stability. […] Under both conditions, the solubility order was VPZ–RES > VPZ–CAT > VPZ–GAL.

[6] = Equilibrium solubility in pH 1.2 and pH 6.8 solutions, 37 °C, 24 h, HPLC; format: physicochemical; settings: for solubility thermodynamic at 24 h: 37 °C, VPZ concentration by HPLC
Experimental: Excess amounts (~500 mg) of powder samples were added to 10 mL of pH 1.2 solution and 30 mL of pH 6.8 solution. […] After 24 h, aliquots of 2.5 mL were withdrawn from the suspension using a 0.45 μm nylon syringe filter and diluted immediately, followed by analysis of the VPZ concentration by HPLC.
The VPZ concentration was measured using an HPLC system (UFLC; Shimadzu) with a diode array detector and Shim-pack GIS-ODS C18 column (4.6 × 250 mm, 5 μm). HPLC analysis was conducted at a column oven temperature of 40 °C with a flow rate of 1 mL/min, and the mobile phase was a mixture of 20 mM ammonium formate in water (pH 3.05) and HPLC-grade MeOH with the addition of 10 mM triethylamine (TEA) (80% : 20%, v/v). The volume of the injected samples was 10 μL and the VPZ content was assayed spectrophotometrically at a wavelength of 245 nm.

Compound: O=C(O)c1ccc(O)cc1 [4-hydroxybenzoic acid]
- ΔpKa [1]: 5.02

Compound: NC(=O)c1ccccc1 [Benzamide]
- ΔpKa [1]: −5.16

Compound: NC(=O)CO [Glycolamide]
- ΔpKa [1]: −4.25

Compound: Oc1ccc(O)cc1 [Hydroquinone]
- ΔpKa [1]: −0.58

Compound: NC(=O)c1ccncc1 [Isonicotinamide]
- ΔpKa [1]: −4.31

Compound: Cc1cc(O)ccc1O [Methyl-hydroquinone]
- ΔpKa [1]: −0.7

Compound: NC(=O)c1cccnc1 [Nicotinamide]
- ΔpKa [1]: −3.99

Compound: NC(=O)C(=O)O [Oxamic acid]
- ΔpKa [1]: 6.92

Compound: Oc1ccccc1O [Pyrocatechol]
- ΔpKa [1]: −0.24

Compound: Oc1cccc(O)c1O [Pyrogallol]
- ΔpKa [1]: 0.3

Compound: O=C1CC[C@@H](C(=O)O)N1 [Pyroglutamic acid]
- ΔpKa [1]: 5.79

Compound: O=C(O)c1ccc[nH]1 [Pyrrole-2-carboxylic acid]
- ΔpKa [1]: 5.78

Compound: Oc1cccc(O)c1 [Resorcinol]
- ΔpKa [1]: −0.17

Compound: O=C(O)CCC(=O)O [Succinic acid]
- ΔpKa [1]: 5.54

Compound: NC(N)=O [Urea]
- ΔpKa [1]: −6.9

Compound: CNCc1cc(-c2ccccc2F)n(S(=O)(=O)c2cccnc2)c1.O=C(O)/C=C/C(=O)O [VPZ-FUM, 1-[5-(2-Fluorophenyl)-1-(pyridin-3-ylsulfonyl)-1H-pyrrol-3-yl]-N-methylmethanamine monofumarate]
- reported solubility in water [2]: < 1000 µg/mL
- stability in the solid state [3]: remained stable
- time to reach peak concentration in IDR plot ([4]; pH 6.8 buffer): ≤ 60 min
- IDR in pH 6.8 [4]: 1.35 mg/cm^2∙min
- stability in aqueous solution (PXRD of undissolved residue) [5]: different from those of the starting material
- solubility at 24 h ([6]; Figure 7a, pH 1.2 buffer, read-out: Solubility in pH 1.2 buffer, Concentration): 27600 µg/mL
- solubility at 24 h ([6]; Figure 7b, pH 6.8 buffer, read-out: Solubility in pH 6.8 buffer, Concentration): 3400 µg/mL
- solubility thermodynamic at 24 h ([6]; pH 1.2 solution, read-out: Equilibrium Solubility after 24 h in pH 1.2): 27710 ± 210 µg/mL
- solubility thermodynamic at 24 h ([6]; pH 6.8 solution, read-out: Equilibrium Solubility after 24 h in pH 6.8): 3400 ± 450 µg/mL

Compound: O=C1NS(=O)(=O)c2ccccc21 [saccharin]
- ΔpKa [1]: 7.46

Compound: Vonoprazan–pyrogallol [VPZ-GAL]
- IDR in pH 6.8 [4]: 0.69 mg/cm^2∙min
